Reference: patent US20220194935A1, “PHENETHYL SUBSTITUTED IMIDAZO[4,5-C]QUINOLINE COMPOUNDS WITH AN N-1 BRANCHED GROUP” (3M INNOVATIVE PROPERTIES COMPANY, priority 2019, published 2022)

System: Human peripheral blood mononuclear cells (PBMC)
Experiment: Cytokine Induction in Human Cells (PBMC), minimum effective concentration
Assay type: cell-based
Conditions: 21-24 hours, lowest concentration giving at least 2× negative control, tested 0.01-30 micromolar; for MEC to Induce Cytokine, IFN-alpha: ELISA; for MEC to Induce Cytokine, IFN-gamma / MEC to Induce Cytokine, TNF-alpha: multiplex bead assay
Experimental: Whole blood was obtained from healthy human donors and collected by venipuncture into vacutainer tubes or syringes containing ethylene diamine tetraacetic acid (EDTA). Human peripheral blood mononuclear cells (PBMC) were purified from the whole blood by density gradient centrifugation. Histopaque 1077 (15 mL, Sigma, St. Louis, Mo.) was transferred to 6×50 mL sterile polypropylene conical tubes. The Histopaque was overlayed with 15-25 mL of blood diluted 1:2 in Hank's Balanced Salts Solution (HBSS) (Gibco, Life Technologies, Grand Island, N.Y.). The tubes were then centrifuged at 1370 revolutions per minute (rpm) for 30 minutes at 20° C., with no brake (400×g, GH 3.8A Rotor).
The interface (buffy coat) containing the PBMC was collected and placed in a new sterile 50 mL conical polypropylene centrifuge tube. The PBMC were mixed with an equal volume of HBSS (about 20 mL from the interface and about 20 mL of HBSS), and then centrifuged at 1090 rpm, 10 minutes, 20° C., with brake (270×g, GH 3.8A Rotor). After completing centrifugation, the cells were resuspended in 2-3mL ACK Red blood cell lysis buffer (ammonium chloride potassium solution, Gibco, Life Technologies) and incubated for 2-5 minutes at 20° C. Next, HBSS (40 mL) was added to the cells, and the sample was centrifuged at 270×g for 10 minutes at 20° C. The supernatant was decanted, and the cell pellet was resuspended in 5 mL AIM V Medium (Gibco, Life Technologies). Cell aggregates and debris were removed by filtering the cell solution through a BD Falcon 70 micron nylon cell strainer (BD Biosciences, San Jose, Calif.).
The number of viable cells was determined by counting with a Miltenyi FACS instrument (Miltenyi Biotec Inc., San Diego, Calif.) or by using a hemacytometer. For determining cell viability with a hemacytometer, the cells were diluted 1/10 in 0.4% trypan blue and HBSS (specifically, 50 microliter of trypan blue +40 microliter of HBSS +10 microliter of cell solution were added to a microfuge tube and mixed). Ten microliters of the diluted cells were then applied to the hemacytometer, and the number of viable PBMC were determined by microscopy.
The PBMC sample was then resuspended in 96-well plates at a concentration of 8×10^5 cells/well in 0.1 mL of AIM-V medium. Each compound was solubilized in dimethyl sulfoxide (DMSO) to create a 3 mM stock solution. The stock solution was then further diluted with AIM-V medium to prepare the serial dilutions. The diluted compound (100 microliters) was then transferred to the PBMCs to produce testing sets with final compound concentrations of 30, 10, 3.3, 1.1, 0.37, 0.12, 0.04, 0.01 micromolar. The plates also had both positive and negative controls. The negative control wells contained only AIM-V medium with no example compound. The positive control wells contained a control set of imiquimod serially diluted to concentrations of 30, 10, 3.3, 1.1, 0.37, 0.12, 0.04, 0.01 micromolar. The concentrations used in the control set were selected to match the concentrations used in the testing set. The plates were then cultured at 37° C./5% CO2 for 21-24 hours. Cell-free supernatants were harvested by centrifuging the 96-well plates at 2100 rpm, 23° C. for 10 minutes. Approximately 160 microliters of the supernatant was then stored in a NUNC 96-well plate, covered with the compression cap and stored at −80° C. until the cytokine analysis was done.
IFN-alpha cytokine levels (picograms/mL) were measured by ELISA (human IFN-alpha, pan specific, Mabtech, Cincinnati, Ohio). IFN-gamma and TNF-alpha levels (picograms/mL) were measured by multiplex bead assay (magnetic beads, R & D Systems, Minneapolis, Minn.) according to the manufacturer's instructions.
Specifically, the minimum effective concentration of each compound (micromolar) was determined as the lowest concentration of the compound that induced a measured cytokine response at a level ([…]) that was at least 2× greater than that observed with the negative control wells.

## Nc1nc2ccccc2c2c1ncn2CCc1ccccc1 [Comparative Example 1, 1-phenethyl-1H-imidazo[4,5-c]quinolin-4-amine, reference compound]
  MEC to Induce Cytokine, IFN-alpha: 1.1 µM
  MEC to Induce Cytokine, IFN-gamma: >30 µM
  MEC to Induce Cytokine, TNF-alpha: 1.1 µM

## C[C@H](Cc1ccccc1)n1cnc2c(N)nc3ccccc3c21 [Example 1, 1-[(1R)-1-methyl-2-phenyl-ethyl]imidazo[4,5-c]quinolin-4-amine]
  MEC to Induce Cytokine, IFN-alpha: 0.37 µM
  MEC to Induce Cytokine, IFN-gamma: 1.1 µM
  MEC to Induce Cytokine, TNF-alpha: 0.12 µM

## CCCC[C@H](Cc1ccccc1)n1cnc2c(N)nc3ccccc3c21 [Example 2, 1-[(1R)-1-benzylpentyl]imidazo[4,5-c]quinolin-4-amine]
  MEC to Induce Cytokine, IFN-alpha: ≤0.01 µM
  MEC to Induce Cytokine, IFN-gamma: ≤0.01 µM
  MEC to Induce Cytokine, TNF-alpha: ≤0.01 µM

## COC[C@@H](Cc1ccccc1)n1cnc2c(N)nc3ccccc3c21 [Example 3, 1-[(1R)-1-benzyl-2-methoxy-ethyl]imidazo[4,5-c]quinolin-4-amine]
  MEC to Induce Cytokine, IFN-alpha: 1.1 µM
  MEC to Induce Cytokine, IFN-gamma: >30 µM
  MEC to Induce Cytokine, TNF-alpha: 1.1 µM

## CCOC[C@@H](Cc1ccccc1)n1cnc2c(N)nc3ccccc3c21 [Example 4, 1-[(1R)-1-benzyl-2-ethoxy-ethyl]imidazo[4,5-c]quinolin-4-amine]
  MEC to Induce Cytokine, IFN-alpha: 0.37 µM
  MEC to Induce Cytokine, IFN-gamma: >30 µM
  MEC to Induce Cytokine, TNF-alpha: 0.37 µM

## COC[C@H](Cc1ccccc1)n1cnc2c(N)nc3ccccc3c21 [Example 5, 1-[(1S)-1-benzyl-2-methoxy-ethyl]imidazo[4,5-c]quinolin-4-amine]
  MEC to Induce Cytokine, IFN-alpha: ≤0.01 µM
  MEC to Induce Cytokine, IFN-gamma: ≤0.01 µM
  MEC to Induce Cytokine, TNF-alpha: ≤0.01 µM

## CCOC[C@H](Cc1ccccc1)n1cnc2c(N)nc3ccccc3c21 [Example 6, 1-[(1S)-1-benzyl-2-ethoxy-ethyl]imidazo[4,5-c]quinolin-4-amine]
  MEC to Induce Cytokine, IFN-alpha: ≤0.01 µM
  MEC to Induce Cytokine, IFN-gamma: ≤0.01 µM
  MEC to Induce Cytokine, TNF-alpha: ≤0.01 µM

## CCCCOc1ccc(C[C@@H](CCCC)n2cnc3c(N)nc4ccccc4c32)cc1 [Example 7, 1-[(1R)-1-[(4-butoxyphenyl)methyl]pentyl]imidazo[4,5-c]quinolin-4-amine]
  MEC to Induce Cytokine, IFN-alpha: ≤0.01 µM
  MEC to Induce Cytokine, IFN-gamma: ≤0.01 µM
  MEC to Induce Cytokine, TNF-alpha: ≤0.01 µM
